From patent publication US12599130B2, “Liquid agricultural adjuvant” (Oro Agri Inc., priority 2019, dated 2026)

Tested on: wheat
Assay: Field trial: wheat cover crop burndown with glyphosate plus adjuvant at full tillering
Type: in vivo
Details: 14 DAT, adjuvant rate 10 g/L, glyphosate 420 g ae/ha
Experimental: Adjuvant x Adjuvant rate effect on wheat cover crop burndown with glyphosate at full tillering stage.
A bifactorial trial was conducted consisting of […] treatments, comprised of a combination of 10 adjuvants (factor A) and 2 adjuvants rates (factor B), plus three reference treatments (Table 6).
Prior to treatment application, two plots per block were chosen to record wheat height and tiller number per plant. In each plot, the height of the tallest and shortest plant was measured, and the tillers counted.
Herbicide application was done using a single-nozzle boom connected to a backpack CO2 pressurized system. Each plot measured 3 ft×20 ft. After 14 and 28 days of application, wheat desiccation was evaluated visually using a 0-100% scale, where 0 corresponds to absence of injury symptoms and 100% corresponds to plant death.

| Compound | Wheat desiccation (%) |
| --- | --- |
| N.N.O=S(=O)(O)O [Ammonium sulfate] | 80 |

Same assay, conditions: 28 DAT, adjuvant rate 10 g/L, glyphosate 420 g ae/ha

| Compound | Wheat desiccation (%) |
| --- | --- |
| N.N.O=S(=O)(O)O [Ammonium sulfate] | 95 |

Tested on: not listed separately
Assay: Paraffin wax solubility test
Type: physicochemical
Details: 2.0 g paraffin wax in 98 g solvent, 25° C., stirring at 350 rpm

| DISSOLUTION TIME [min] | Compound |
| --- | --- |
| 102 | CCCCCCCCCCCC(=O)OC(C)C [ISOPROPYL LAURATE] |
| 300 | CCCCCCCCCCCC(=O)OC [METHYL LAURATE] |
| 930 | CCCCCCCCCCCC(=O)OCC(CC)CCCC (stereo not drawn) [2-ETHYLHEXYL LAURATE] |
| 620 | CCCCCCCCCCCC(=O)OCCC(C)C [ISOAMYL LAURATE] |
| 340 | CCCCCCCCCCCC(=O)OCC(C)C [ISOBUTYL LAURATE] |

Same assay, conditions: 2.0 g paraffin wax in 98 g solvent, 25° C., up to 24 hours stirring

| OBSERVATION | Compound |
| --- | --- |
| UNDISSOLVED | C[S+](C)[O-] [DIMETHYL SULFOXIDE] |
| UNDISSOLVED | OCC1CCCO1 (stereo not drawn) [TETRAHYDROFURFURAL ALCOHOL] |
| UNDISSOLVED | CC1COC(=O)O1 (stereo not drawn) [PROPYLENE CARBONATE] |

| Compound | OBSERVATION |
| --- | --- |
| O=C1CCCCC1 [CYCLOHEXANONE] | UNDISSOLVED |
| CCCCCCCCCC(=O)N(C)C | UNDISSOLVED |
